Columns and labels:
[1] = system: mouse model of generalised seizure; details: data of PCT/GB2020/052944; cited from earlier work
[2] = Stability of 6-OH CBDV Form A to compression (XRPD after pressing); assay type: physicochemical; details: ~60 mg in KBr pellet die, compressed overnight at ~370 MPa, analysed immediately by XRPD
Procedure: (§1) XRPD analyses were performed using a Panalytical Empyrean diffractometer equipped with a Cu X-ray tube and a PIXcel 1 D-Medipix3 detector system. The samples were analysed at ambient temperature in transmission mode and held between low density PVC films. The XRPD program parameters were: range 3-40° 2θ or 4-40° 2θ, step size 0.01313°, counting time 23 sec, ˜5 min run time. Samples were spun at 60 rpm during data collection. XRPD patterns were sorted, manipulated using HighScore Plus v4.9 software.
Crystalline Form A material (˜60 mg) was added to a KBr pellet die and compressed overnight at ˜370 MPa using a hydraulic press. The resultant solid disc was removed from the press and immediately analysed by XRPD.

[3] = Stability of Form A to ball milling (XRPD after milling); assay type: physicochemical; details: 6 minutes at 25 Hz
Procedure: as §1
A ball mill was used to mimic the effects of grinding that would be experienced during formulation steps such as dry blending and wet granulation.
Approximately 45 mg of crystalline Form A material was added to a milling chamber with an agate milling ball. Using a Retsch MM200 mixer mill, the material was milled for 6 minutes at a frequency of 25 Hz. Periodically, the milling was stopped and powder that adhered to the milling chamber was scraped down. The resultant milled material was analysed using XRPD. Samples were also milled with addition of a small amount of solvent (˜10 μL).

Row | SMILES | Anticonvulsant activity [1] | Solid form after compression (XRPD) [2] | Output Form after milling (XRPD) ([3]; dry ball milling, no solvent) | Output Form after milling (XRPD) ([3]; wet ball milling, water (~10 μL))
1 | C=C(C)[C@@H]1C[C@H](O)C(C)=C[C@H]1c1c(O)cc(CCC)cc1O [6-OH CBDV, 6-hydroxy cannabidivarin] | displays anticonvulsant activity |  |  | 
2 | C=C(C)[C@@H]1C[C@H](O)C(C)=C[C@H]1c1c(O)cc(CCC)cc1O [Form A, 6-hydroxy cannabidivarin] |  | remained as Form A | no change in form | no change in form

From patent US20250289774A1, “[…] OF A CANNABIDIOL-LIKE CANNABINOID” (Jazz Pharmaceuticals Research UK Limited, priority 2022, published 2025)
